The term Kd denotes the equilibrium constant for the complex coming apart.

Here are results for two substances from article PMC3004780 (Journal of nuclear medicine : official publication, Society …, 2009).

In one series the test system is neutrophil FPR. The note with it: read-out: Kd for neutrophil FPR; unaltered parent peptide, antagonist; cited from earlier work.
For series [1] the following is noted: mouse, in vivo.
In series [2] the test system is Klebsiella pneumoniae lung inflammation model. The format is in vivo, mouse. As to conditions: excised tissue, 18 hr post injection, control n=4, Klebsiella-infected n=6 mice.
Series [3] shares this test system. The format is in vivo, mouse.

For N-cinnamoyl-F-(D)L-F-(D)L-F [cFLFLF], in the series with neutrophil FPR, the equilibrium dissociation constant (Kd) is 2 nM.

Take “cFLFLF-PEG76-DOTA-^64Cu [cFLFLFK-PEG-^64Cu]”: in series [1], the Blood half-life entry is given as “approximately 1 hour”. In addition, the “Blood clearance (biological) half-life” value in series [1] (iv) stood at 55 ± 8 min. Besides, the “Mean ratio of radioactivity in infected to control lungs” value in series [2] came to 3.8. In series [3] (PET 18 hr post injection, n=4, mean ± SD), the “Average lung SUV, control mice” value is 0.028 ± 0.003. Moreover, the “Average lung SUV, Klebsiella infected mice” value in series [3] (PET 18 hr post injection, n=6, mean ± SD) amounted to 0.142 ± 0.054. For the same substance, in series [3] (mouse, in vivo), the “Ligand half-life in the control lung” value was 4.8 ± 0.7 h and the “Ligand half-life in the infected lung” value was 10.3 ± 2.9 h.
